In PubChem BioAssay AID1918993 (Molecular Pharmacology Branch, DTP, NCI, 2023):

Test system: 233499-124-R-J3-PDC complex spheroid growth
Assay: Anticancer human tumor 233499-124-R-J3-PDC patient-derived colon adenocarcinoma cell line growth inhibition [AhR]
Conditions: for IC50: curve of first compound; for viability, T/C: stronger effect = lower value
Procedure, shortened: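 Agents were dosed in half-log steps down from roughly clinical Cmax, or from 10 microM where Cmax was unknown, alone and with AhR antagonists. Read-out: percent test/control growth of tumor spheroids containing HUVEC and MSC stromal cells.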

[1] = second compound 0.1 µM, first compound 0.000949 µM
[2] = second compound 0.1 µM, first compound 0.003 µM
[3] = second compound 0.1 µM, first compound 0.00949 µM
[4] = second compound 0.1 µM, first compound 0.03 µM
[5] = second compound 0.1 µM, first compound 0.0949 µM
[6] = second compound 0.1 µM, first compound 0.3 µM
[7] = second compound 0.316 µM, first compound 0.000949 µM
[8] = second compound 0.316 µM, first compound 0.003 µM
[9] = second compound 0.316 µM, first compound 0.00949 µM
[10] = second compound 0.316 µM, first compound 0.03 µM
[11] = second compound 0.316 µM, first compound 0.0949 µM
[12] = second compound 0.316 µM, first compound 0.3 µM
[13] = second compound 1 µM, first compound 0.000949 µM
[14] = second compound 1 µM, first compound 0.003 µM
[15] = second compound 1 µM, first compound 0.00949 µM
[16] = second compound 1 µM, first compound 0.03 µM
[17] = second compound 1 µM, first compound 0.0949 µM
[18] = second compound 1 µM, first compound 0.3 µM
[19] = second compound 3.16 µM, first compound 0.000949 µM
[20] = second compound 3.16 µM, first compound 0.003 µM
[21] = second compound 3.16 µM, first compound 0.00949 µM
[22] = second compound 3.16 µM, first compound 0.03 µM
[23] = second compound 3.16 µM, first compound 0.0949 µM
[24] = second compound 3.16 µM, first compound 0.3 µM
[25] = second compound 10 µM, first compound 0.000949 µM
[26] = second compound 10 µM, first compound 0.003 µM
[27] = second compound 10 µM, first compound 0.00949 µM
[28] = second compound 10 µM, first compound 0.03 µM
[29] = second compound 10 µM, first compound 0.0949 µM
[30] = second compound 10 µM, first compound 0.3 µM
[31] = second compound 0.1 µM, first compound 0.0316 µM
[32] = second compound 0.1 µM, first compound 0.1 µM
[33] = second compound 0.1 µM, first compound 0.316 µM
[34] = second compound 0.1 µM, first compound 1 µM
[35] = second compound 0.1 µM, first compound 3.16 µM
[36] = second compound 0.1 µM, first compound 10 µM
[37] = second compound 0.316 µM, first compound 0.0316 µM
[38] = second compound 0.316 µM, first compound 0.1 µM
[39] = second compound 0.316 µM, first compound 0.316 µM
[40] = second compound 0.316 µM, first compound 1 µM
[41] = second compound 0.316 µM, first compound 3.16 µM
[42] = second compound 0.316 µM, first compound 10 µM
[43] = second compound 1 µM, first compound 0.0316 µM
[44] = second compound 1 µM, first compound 0.1 µM
[45] = second compound 1 µM, first compound 0.316 µM
[46] = second compound 1 µM, first compound 1 µM
[47] = second compound 1 µM, first compound 3.16 µM
[48] = second compound 1 µM, first compound 10 µM
[49] = second compound 3.16 µM, first compound 0.0316 µM
[50] = second compound 3.16 µM, first compound 0.1 µM
[51] = second compound 3.16 µM, first compound 0.316 µM
[52] = second compound 3.16 µM, first compound 1 µM
[53] = second compound 3.16 µM, first compound 3.16 µM
[54] = second compound 3.16 µM, first compound 10 µM
[55] = second compound 10 µM, first compound 0.0316 µM
[56] = second compound 10 µM, first compound 0.1 µM
[57] = second compound 10 µM, first compound 0.316 µM
[58] = second compound 10 µM, first compound 1 µM
[59] = second compound 10 µM, first compound 3.16 µM
[60] = second compound 10 µM, first compound 10 µM
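Note: spheroids exposed to agents for seven days before reading.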

## CC(C)CC(NC(=O)C(Cc1ccccc1)NC(=O)c1cnccn1)B(O)O (stereo not given) + Cc1cncc(-c2nc(NCCc3c[nH]c4ccccc34)c3ncn(C(C)C)c3n2)c1
Second compound 0.1 µM
  IC50: 15.4 nM
Second compound 0.316 µM
  IC50: 13.3 nM
Second compound 1 µM
  IC50: 13.2 nM
Second compound 3.16 µM
  IC50: 12.9 nM
Second compound 10 µM
  IC50: < 0.949 nM
[1]
  viability, T/C: 98.3%
[2]
  viability, T/C: 95.1%
[3]
  viability, T/C: 86.4%
[4]
  viability, T/C: 0.15%
[5]
  viability, T/C: 0.05%
[6]
  viability, T/C: 0.13%
[7]
  viability, T/C: 92%
[8]
  viability, T/C: 86.9%
[9]
  viability, T/C: 70.9%
[10]
  viability, T/C: 0.12%
[11]
  viability, T/C: 0.04%
[12]
  viability, T/C: 0.13%
[13]
  viability, T/C: 92.1%
[14]
  viability, T/C: 89%
[15]
  viability, T/C: 69.7%
[16]
  viability, T/C: 0.12%
[17]
  viability, T/C: 0.05%
[18]
  viability, T/C: 0.13%
[19]
  viability, T/C: 86.2%
[20]
  viability, T/C: 82.1%
[21]
  viability, T/C: 68.3%
[22]
  viability, T/C: 0.11%
[23]
  viability, T/C: 0.04%
[24]
  viability, T/C: 0.9%
[25]
  viability, T/C: 8.49%
[26]
  viability, T/C: 5.28%
[27]
  viability, T/C: 4.74%
[28]
  viability, T/C: 0.17%
[29]
  viability, T/C: 0.15%
[30]
  viability, T/C: 0.21%

## CCc1c2c(nc3ccc(O)cc13)-c1cc3c(c(=O)n1C2)COC(=O)[C@]3(O)CC + Cc1cncc(-c2nc(NCCc3c[nH]c4ccccc34)c3ncn(C(C)C)c3n2)c1
Second compound 0.1 µM
  IC50: > 300 nM
Second compound 0.316 µM
  IC50: > 300 nM
Second compound 1 µM
  IC50: > 300 nM
Second compound 3.16 µM
  IC50: > 300 nM
Second compound 10 µM
  IC50: < 0.949 nM
[1]
  viability, T/C: 97%
[2]
  viability, T/C: 99.5%
[3]
  viability, T/C: 77.6%
[4]
  viability, T/C: 77.5%
[5]
  viability, T/C: 71.1%
[6]
  viability, T/C: 91.8%
[7]
  viability, T/C: 101%
[8]
  viability, T/C: 89.9%
[9]
  viability, T/C: 71.9%
[10]
  viability, T/C: 67.2%
[11]
  viability, T/C: 66.4%
[12]
  viability, T/C: 67.6%
[13]
  viability, T/C: 86.4%
[14]
  viability, T/C: 89.1%
[15]
  viability, T/C: 70%
[16]
  viability, T/C: 81%
[17]
  viability, T/C: 94.3%
[18]
  viability, T/C: 64.3%
[19]
  viability, T/C: 90%
[20]
  viability, T/C: 96.2%
[21]
  viability, T/C: 72.3%
[22]
  viability, T/C: 86.1%
[23]
  viability, T/C: 70%
[24]
  viability, T/C: 65.3%
[25]
  viability, T/C: 10.4%
[26]
  viability, T/C: 13.7%
[27]
  viability, T/C: 21.5%
[28]
  viability, T/C: 17%
[29]
  viability, T/C: 9.13%
[30]
  viability, T/C: 7.22%

## Nc1ccccc1NC(=O)c1ccc(CNC(=O)OCc2cccnc2)cc1 + Cc1cncc(-c2nc(NCCc3c[nH]c4ccccc34)c3ncn(C(C)C)c3n2)c1
Second compound 0.1 µM
  IC50: 4260 nM
Second compound 0.316 µM
  IC50: 2610 nM
Second compound 1 µM
  IC50: 1780 nM
Second compound 3.16 µM
  IC50: 1490 nM
Second compound 10 µM
  IC50: < 31.6 nM
[31]
  viability, T/C: 89.4%
[32]
  viability, T/C: 99.9%
[33]
  viability, T/C: 92.6%
[34]
  viability, T/C: 106%
[35]
  viability, T/C: 65.9%
[36]
  viability, T/C: 4.68%
[37]
  viability, T/C: 93.8%
[38]
  viability, T/C: 90%
[39]
  viability, T/C: 80.7%
[40]
  viability, T/C: 109%
[41]
  viability, T/C: 41.3%
[42]
  viability, T/C: 2.94%
[43]
  viability, T/C: 80.4%
[44]
  viability, T/C: 84.8%
[45]
  viability, T/C: 71.9%
[46]
  viability, T/C: 93.9%
[47]
  viability, T/C: 17.1%
[48]
  viability, T/C: 1.34%
[49]
  viability, T/C: 74%
[50]
  viability, T/C: 77.7%
[51]
  viability, T/C: 78.6%
[52]
  viability, T/C: 74.6%
[53]
  viability, T/C: 4.12%
[54]
  viability, T/C: 0.26%
[55]
  viability, T/C: 7.14%
[56]
  viability, T/C: 7.87%
[57]
  viability, T/C: 7.4%
[58]
  viability, T/C: 1.13%
[59]
  viability, T/C: 0.78%
[60]
  viability, T/C: 0.29%

## O=C(c1cc(Cc2n[nH]c(=O)c3ccccc23)ccc1F)N1CCN(C(=O)C2CC2)CC1 + Cc1cncc(-c2nc(NCCc3c[nH]c4ccccc34)c3ncn(C(C)C)c3n2)c1
Second compound 0.1 µM
  IC50: > 10000 nM
Second compound 0.316 µM
  IC50: > 10000 nM
Second compound 1 µM
  IC50: > 10000 nM
Second compound 3.16 µM
  IC50: > 10000 nM
Second compound 10 µM
  IC50: < 31.6 nM
[31]
  viability, T/C: 115%
[32]
  viability, T/C: 105%
[33]
  viability, T/C: 100%
[34]
  viability, T/C: 102%
[35]
  viability, T/C: 98.6%
[36]
  viability, T/C: 105%
[37]
  viability, T/C: 106%
[38]
  viability, T/C: 99.3%
[39]
  viability, T/C: 96.3%
[40]
  viability, T/C: 95.5%
[41]
  viability, T/C: 103%
[42]
  viability, T/C: 92.3%
[43]
  viability, T/C: 87.5%
[44]
  viability, T/C: 97.2%
[45]
  viability, T/C: 93.9%
[46]
  viability, T/C: 71.5%
[47]
  viability, T/C: 87.5%
[48]
  viability, T/C: 86%
[49]
  viability, T/C: 74.8%
[50]
  viability, T/C: 86.4%
[51]
  viability, T/C: 76.3%
[52]
  viability, T/C: 83.6%
[53]
  viability, T/C: 85.9%
[54]
  viability, T/C: 90.1%
[55]
  viability, T/C: 5.45%
[56]
  viability, T/C: 6.91%
[57]
  viability, T/C: 19.4%
[58]
  viability, T/C: 16.2%
[59]
  viability, T/C: 8.78%
[60]
  viability, T/C: 19.1%
